Here are results for 26 compounds from ChEMBL document CHEMBL5370540, “Discovery of pyrimidine-5-carboxamide derivatives as novel salt-inducible kinases (SIKs) inhibitors for inflammatory bowel disease (IBD) treatment” (Eur J Med Chem, 2023).

Structures are written as SMILES. Activity calls are given as the source filed them. The calls are words filed in the database; no cut-off is given here. Some results are limits rather than exact numbers.

Data set [1] in a line: Metabolic stability in human liver microsomes assessed as half life. The class given is ADME, Microsome.
The target of data set [2] is T1, Serine/threonine-protein kinase SIK2 (Homo sapiens, UniProt Q9H0K1). The data set can be described thus: Inhibition of SIK2 (unknown origin) assessed as residual activity at 0.1 uM relative to control.
Target sequence in this assay (Q9H0K1 whole entry, looked up): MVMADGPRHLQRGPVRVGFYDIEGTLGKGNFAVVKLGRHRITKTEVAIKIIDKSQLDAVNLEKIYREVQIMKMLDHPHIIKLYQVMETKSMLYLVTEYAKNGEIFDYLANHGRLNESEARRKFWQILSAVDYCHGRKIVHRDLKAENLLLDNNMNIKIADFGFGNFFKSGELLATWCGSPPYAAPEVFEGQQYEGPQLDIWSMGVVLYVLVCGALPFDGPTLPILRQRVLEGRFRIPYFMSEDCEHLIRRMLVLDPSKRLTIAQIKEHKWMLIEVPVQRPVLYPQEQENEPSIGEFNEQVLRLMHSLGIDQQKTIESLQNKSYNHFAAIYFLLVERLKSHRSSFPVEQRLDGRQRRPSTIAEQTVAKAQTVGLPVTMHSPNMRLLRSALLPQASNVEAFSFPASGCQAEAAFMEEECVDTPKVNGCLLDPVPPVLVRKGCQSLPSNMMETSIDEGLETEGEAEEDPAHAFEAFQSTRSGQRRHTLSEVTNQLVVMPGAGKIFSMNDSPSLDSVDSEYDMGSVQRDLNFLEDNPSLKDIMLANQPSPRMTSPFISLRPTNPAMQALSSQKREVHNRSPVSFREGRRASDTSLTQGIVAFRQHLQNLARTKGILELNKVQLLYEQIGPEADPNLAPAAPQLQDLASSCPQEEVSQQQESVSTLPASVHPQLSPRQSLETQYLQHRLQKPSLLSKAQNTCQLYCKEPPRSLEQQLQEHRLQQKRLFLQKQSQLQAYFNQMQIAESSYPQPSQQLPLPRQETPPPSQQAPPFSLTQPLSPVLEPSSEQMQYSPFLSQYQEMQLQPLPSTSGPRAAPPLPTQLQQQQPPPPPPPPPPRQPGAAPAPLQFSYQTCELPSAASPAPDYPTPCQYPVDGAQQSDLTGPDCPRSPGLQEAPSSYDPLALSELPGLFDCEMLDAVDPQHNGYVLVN
Data set [3] has as its target T2, Serine/threonine-protein kinase SIK3 (Homo sapiens, UniProt Q9Y2K2). In words: Inhibition of SIK3 (unknown origin) assessed as residual activity at 0.1 uM relative to control.
Target sequence in this assay (Q9Y2K2 whole entry, looked up): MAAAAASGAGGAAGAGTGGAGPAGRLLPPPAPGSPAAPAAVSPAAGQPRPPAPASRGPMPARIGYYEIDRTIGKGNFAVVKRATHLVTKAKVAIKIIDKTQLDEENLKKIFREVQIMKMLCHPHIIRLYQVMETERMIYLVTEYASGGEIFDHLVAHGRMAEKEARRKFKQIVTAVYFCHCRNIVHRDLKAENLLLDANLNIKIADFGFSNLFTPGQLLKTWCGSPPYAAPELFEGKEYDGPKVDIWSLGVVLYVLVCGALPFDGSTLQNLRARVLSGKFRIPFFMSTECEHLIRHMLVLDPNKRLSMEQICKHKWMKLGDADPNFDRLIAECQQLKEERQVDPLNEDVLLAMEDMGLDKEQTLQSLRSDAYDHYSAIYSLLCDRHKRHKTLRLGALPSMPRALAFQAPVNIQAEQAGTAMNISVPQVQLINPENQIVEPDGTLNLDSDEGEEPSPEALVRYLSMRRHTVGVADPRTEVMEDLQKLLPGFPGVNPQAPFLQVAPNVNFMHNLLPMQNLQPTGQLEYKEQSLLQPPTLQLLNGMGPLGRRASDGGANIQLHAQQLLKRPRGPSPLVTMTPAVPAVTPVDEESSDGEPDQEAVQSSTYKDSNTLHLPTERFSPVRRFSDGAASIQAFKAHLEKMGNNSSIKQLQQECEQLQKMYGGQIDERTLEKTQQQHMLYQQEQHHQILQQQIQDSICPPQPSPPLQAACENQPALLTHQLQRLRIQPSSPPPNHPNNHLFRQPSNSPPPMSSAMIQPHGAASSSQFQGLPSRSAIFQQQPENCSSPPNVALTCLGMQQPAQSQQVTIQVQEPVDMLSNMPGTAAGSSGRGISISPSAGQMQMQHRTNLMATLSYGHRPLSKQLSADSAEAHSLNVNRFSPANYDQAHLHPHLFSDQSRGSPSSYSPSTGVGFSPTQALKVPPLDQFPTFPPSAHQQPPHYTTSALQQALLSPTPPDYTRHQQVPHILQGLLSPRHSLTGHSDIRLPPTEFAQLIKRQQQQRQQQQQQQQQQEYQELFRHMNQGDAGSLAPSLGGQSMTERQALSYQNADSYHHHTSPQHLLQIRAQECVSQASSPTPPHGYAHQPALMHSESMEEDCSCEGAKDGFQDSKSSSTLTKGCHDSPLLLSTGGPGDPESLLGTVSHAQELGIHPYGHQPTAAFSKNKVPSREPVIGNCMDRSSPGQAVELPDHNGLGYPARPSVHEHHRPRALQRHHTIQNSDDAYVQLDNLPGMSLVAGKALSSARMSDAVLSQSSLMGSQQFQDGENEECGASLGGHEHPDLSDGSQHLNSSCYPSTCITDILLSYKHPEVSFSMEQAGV
Data set [4] has as its target T3, Serine/threonine-protein kinase SIK1 (Homo sapiens, UniProt P57059). In words: Inhibition of SIK1 (unknown origin) assessed as residual activity at 0.1 uM relative to control.
A short description of data set [5]: Tmax in Sprague-Dawley rat at 5 mg/kg, iv measured upto 24 hrs by LC/MS/MS analysis. The class given is ADME, organism-based. Particulars: in vivo.
Data set [6] can be described thus: AUC (0 to t) in Sprague-Dawley rat at 5 mg/kg, po measured upto 24 hrs by LC/MS/MS analysis. It counts as ADME, organism-based. On the set-up: time < 24 hrs, dose 5 mg/kg, route po. Particulars: in vivo.
In data set [7] the test system is BMDM. In words: Anti-inflammatory activity against C57BL/6J mouse BMDM cells assessed as decrease in IL-12 level upto 500 nM preincubated for 1 hr followed by LPS stimulation measured after 8 hrs by ELISA method. The class given is functional, cell-based. Conditions: time 9.0 hrs.
A short description of data set [8]: Cmax in Sprague-Dawley rat at 5 mg/kg, iv measured upto 24 hrs by LC/MS/MS analysis. Conditions: in vivo. The class given is ADME, organism-based. On the set-up: dose 5 mg/kg, time < 24 hrs, route iv.
In data set [9] the test system is BMDM. In words: Anti-inflammatory activity against C57BL/6J mouse BMDM cells assessed as decrease in IL-12 level at 500 nM preincubated for 1 hr followed by LPS stimulation measured after 4 to 8 hrs by ELISA method. Particulars: time 5-9 hrs. It counts as functional, cell-based.
Data set [10] in a line: Oral bioavailability in Sprague-Dawley rat at 5 mg/kg measured upto 24 hrs by LC/MS/MS analysis. The class given is ADME, organism-based. Conditions: in vivo.
Data set [11] deals with BMDM. In words: Anti-inflammatory activity against C57BL/6J mouse BMDM cells assessed as increase in IL-10 level at 500 nM preincubated for 1 hr followed by LPS stimulation measured after 2 to 8 hrs by ELISA method. Particulars: time 3-9 hrs. It counts as functional, cell-based.
Data set [12] deals with BMDM. In words: Cytotoxicity against C57BL/6J mouse BMDM cells assessed as cell viability upto 500 nM preincubated for 1 hr followed by LPS stimulation measured after 2 to 4 hrs by CCK8 assay. The class given is toxicity, cell-based. Particulars: 0.5 µM, time 3-5 hrs.
A short description of data set [13]: Half life in Sprague-Dawley rat at 5 mg/kg, po measured upto 24 hrs by LC/MS/MS analysis. The class given is ADME, organism-based. Conditions: in vivo.
Data set [14] concerns BMDM. In words: Anti-inflammatory activity against C57BL/6J mouse BMDM cells assessed as decrease in IL-12 level at 500 nM preincubated for 1 hr followed by LPS stimulation measured after 8 hrs by ELISA method. The class given is functional, cell-based. Particulars: time 9.0 hrs.
Data set [15] can be described thus: Metabolic stability in mouse liver microsomes assessed as half life. The class given is ADME, Microsome.
Data set [16] can be described thus: AUC (0 to t) in Sprague-Dawley rat at 5 mg/kg, iv measured upto 24 hrs by LC/MS/MS analysis. The class given is ADME, organism-based. More on the design: time < 24 hrs, dose 5 mg/kg, route iv. Conditions: in vivo.
Data set [17] can be described thus: Tmax in Sprague-Dawley rat at 5 mg/kg, po measured upto 24 hrs by LC/MS/MS analysis. It counts as ADME, organism-based. Particulars: in vivo.
Data set [18] in a line: Protein binding in human plasma at 10 uM measured for 8 hrs by dialysis method. It counts as ADME, cell-free. Conditions: read-out: PPB (converted).
Data set [19] in a line: Half life in Sprague-Dawley rat at 5 mg/kg, iv measured upto 24 hrs by LC/MS/MS analysis. It counts as ADME, organism-based. Particulars: in vivo.
The nature of data set [20]: Clearance in Sprague-Dawley rat at 5 mg/kg, iv measured upto 24 hrs by LC/MS/MS analysis. Particulars: in vivo. The class given is ADME, organism-based.
The nature of data set [21]: Cmax in Sprague-Dawley rat at 5 mg/kg, po measured upto 24 hrs by LC/MS/MS analysis. The class given is ADME, organism-based. More on the design: time < 24 hrs, dose 5 mg/kg, route po. Particulars: in vivo.
Data set [22] is described as follows: Clearance in Sprague-Dawley rat at 5 mg/kg, po measured upto 24 hrs by LC/MS/MS analysis. It counts as ADME, organism-based. Particulars: in vivo.
In data set [23] the target is T3, Serine/threonine-protein kinase SIK1. The data set can be described thus: Inhibition of SIK1 (unknown origin).
The nature of data set [24]: Selectivity ratio of IC50 for SIK3 (unknown origin) to IC50 for SIK2 (unknown origin).
Data set [25] has as its target T1, Serine/threonine-protein kinase SIK2. In words: Inhibition of SIK2 (unknown origin).
Target sequence in this assay (Q9H0K1 whole entry): as the sequence (Q9H0K1 whole entry, looked up) above
Data set [26] has as its target T2, Serine/threonine-protein kinase SIK3. In words: Inhibition of SIK3 (unknown origin).
Target sequence in this assay (Q9Y2K2 whole entry): as the sequence (Q9Y2K2 whole entry, looked up) above
Data set [27] is described as follows: Selectivity ratio of IC50 for SIK1 (unknown origin) to IC50 for SIK2 (unknown origin).
The nature of data set [28]: Protein binding in mouse plasma. The class given is ADME, cell-free. Conditions: read-out: PPB.

T3 sequence (P57059 whole entry): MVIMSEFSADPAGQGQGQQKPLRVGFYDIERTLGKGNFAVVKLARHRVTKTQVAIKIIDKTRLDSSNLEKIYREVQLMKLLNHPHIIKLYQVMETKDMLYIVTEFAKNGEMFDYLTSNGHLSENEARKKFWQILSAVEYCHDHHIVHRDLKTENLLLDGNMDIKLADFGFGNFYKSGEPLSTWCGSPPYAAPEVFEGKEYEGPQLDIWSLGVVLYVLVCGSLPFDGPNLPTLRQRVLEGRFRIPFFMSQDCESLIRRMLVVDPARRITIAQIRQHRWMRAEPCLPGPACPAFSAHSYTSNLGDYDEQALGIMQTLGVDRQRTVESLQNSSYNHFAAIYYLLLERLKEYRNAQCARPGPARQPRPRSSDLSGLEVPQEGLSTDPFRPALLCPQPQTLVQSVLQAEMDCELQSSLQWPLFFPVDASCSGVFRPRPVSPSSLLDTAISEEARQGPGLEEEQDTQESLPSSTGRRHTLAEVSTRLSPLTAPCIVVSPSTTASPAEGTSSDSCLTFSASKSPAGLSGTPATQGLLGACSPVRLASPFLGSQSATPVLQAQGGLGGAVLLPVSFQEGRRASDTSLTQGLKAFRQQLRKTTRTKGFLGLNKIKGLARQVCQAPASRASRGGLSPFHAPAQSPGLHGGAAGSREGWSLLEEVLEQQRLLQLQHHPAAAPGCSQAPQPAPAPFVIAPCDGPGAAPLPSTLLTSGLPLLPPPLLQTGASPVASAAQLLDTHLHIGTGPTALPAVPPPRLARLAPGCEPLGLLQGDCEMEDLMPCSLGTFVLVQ

Turning to `Cc1cccc(C)c1NC(=O)c1cnc(Nc2ccc(CN3CCOCC3)cc2)nc1NC1CCC1`, the half-life in data set [1] worked out at 6.5 min.
Same read-out and setting: under `COc1cc(Nc2ncc(C(=O)Nc3c(C)cccc3C)c(NC3CC3)n2)ccc1N1CCN(C)CC1` stands 52.1 min; under `Cc1cccc(C)c1NC(=O)c1cnc(Nc2ccc(N3CCN(C)CC3)cc2)nc1NC1CCC1`, 44.7 min; under `Cc1cccc(C)c1NC(=O)c1cnc(Nc2ccc(N3CCN(C)CC3)cc2F)nc1NC1CCC1`, > 120 min.
With `CN1CCN(c2ccc(Nc3ncc(C(=O)Nc4c(F)cccc4F)c(NC4CCC4)n3)cc2)CC1`, the Activity in [2] amounted to 10%; in [3] it was 93%; in data set [4], 12%. In addition, in data set [1], the half-life worked out at 49.5 min.
`COc1ccc(Nc2nc(Nc3ccc(N4CCN(C)CC4)cc3)ncc2C(=O)Nc2c(C)cccc2C)c(OC)c1`: the half-life in data set [1] was > 120 min.
`Cc1cccc(C)c1NC(=O)c1cnc(Nc2ccc(N3CCN(C)CC3)c(Cl)c2)nc1NC1CCC1`: the half-life in [1] amounted to 56.6 min.
On to `COc1ccc(N(C(=O)Nc2c(C)cccc2C)c2cc(Nc3ccc(N4CCN(C)CC4)cc3)ncn2)c(OC)c1`, for which the Tmax in data set [5] came out at 6 min; in data set [17], 78 min. In addition, the AUC(0-t) at 24 h was determined as 522 ng·h/mL in data set [6] and 1110 ng·h/mL in [16]. Besides, the outcome in the data set with BMDM [7], in the data set on BMDM [11] and in the data set on BMDM [14] was Active. Also, the results for the highest concentration (Cmax) in [8] and in data set [21] were 1290 ng/mL and 149 ng/mL, respectively. Moreover, the result in the data set with BMDM [9] was inactive. Also, the bioavailability in data set [10] was 47.2%. Besides, in the data set with BMDM [12], the Activity entry is “Non-Toxic”. Further, the half-life in [13] is 150 min; in data set [15], 11 min; in [1], 14.4 min; in [19], 210 min. In data set [18], the fraction unbound at 8 h, 10 µM was < 0.01. In data set [20], the clearance is 76.7 mL/min/kg. This compound showed a CL/F in data set [22] of 223 mL/min/kg.
For the compound `Cc1cccc(F)c1NC(=O)c1cnc(Nc2ccc(N3CCN(C)CC3)c(F)c2)nc1NC1CC1`, the Tmax in data set [5] came to 6 min; in data set [17] it was 222 min. Besides, the IC50 in [23] was 16 nM; in [25], 6 nM; in [26] it was 51 nM. For the same compound, the AUC(0-t) at 24 h in data set [6] came out at 432 ng·h/mL; in data set [16], 1850 ng·h/mL. In addition, the Cmax amounted to 1540 ng/mL in data set [8] and 52.2 ng/mL in data set [21]. This compound also yielded a bioavailability in [10] of 23.4%. Further, the half-life in [13] is 234 min; in data set [1] it was 73.7 min; in [19], 366 min. Further, the Ratio IC50 was found to be 8.5 in data set [24] and 2.7 in data set [27]. In addition, the clearance in data set [20] was 51.7 mL/min/kg. Moreover, the CL/F in [22] is 315 mL/min/kg.
Consider `Cc1cccc(C)c1NC(=O)c1cnc(Nc2ccc(N3CCN(C)CC3)c(F)c2)nc1NC1CCC1`, for which the half-life in data set [1] came to 62.4 min.
Same read-out and setting: under `Cc1cccc(C)c1NC(=O)c1cnc(Nc2ccc(N3CCN(C)CC3)cc2)nc1NC1CCCC1` stands 32.4 min.
On to `Cc1cccc(C)c1NC(=O)c1cnc(Nc2ccc(N3CCN(C)CC3)cc2)nc1NC1CCCCC1`, for which the half-life in data set [1] was determined as 37.3 min.
Take `Cc1cccc(F)c1NC(=O)c1cnc(Nc2ccc(N3CCN(C)CC3)cc2)nc1NC1CCC1`: the figures for the Activity in [2] and in data set [3] were 1% and 9%, respectively. Moreover, the half-life in [1] worked out at 69.3 min.
`Cc1cccc(C)c1NC(=O)c1cnc(Nc2ccc(N3CCN(C)CC3)cc2)nc1NC(C)C`: the half-life in [1] was found to be 24.3 min.
Consider `COc1cc(Nc2ncc(C(=O)Nc3c(C)cccc3C)c(NC3CCC3)n2)ccc1N1CCN(C)CC1`, for which, in [1], the half-life came out at 48.6 min.
On to `Cc1cccc(Cl)c1NC(=O)c1cnc(Nc2ccc(N3CCN(C)CC3)cc2)nc1NC1CCC1`, for which the Activity in data set [2] turned out to be 20%; in data set [3], 68%; in data set [4], 31%. In [1], the half-life amounted to 43.3 min.
Regarding `COc1ccc(N2C(=O)N(c3c(C)cccc3Cl)Cc3cnc(Nc4ccc(N5CCN(C)CC5)cc4)nc32)nc1`, in [15], the half-life is 27 min.
`COc1cccc(C)c1NC(=O)c1cnc(Nc2ccc(N3CCN(C)CC3)cc2)nc1NC1CCC1`: the Activity in data set [2] stood at 107%; in data set [3] it was 93%. In addition, the half-life in data set [1] was 31.9 min.
For the compound `Cc1cccc(C)c1NC(=O)c1cnc(Nc2ccc(N3CCN(C)CC3)c(F)c2)nc1NC1CC1`, the half-life in [1] amounted to 60.3 min.
For `CNc1nc(Nc2ccc(N3CCN(C)CC3)cc2)ncc1C(=O)Nc1c(C)cccc1C`, in [1], the half-life turned out to be 17.5 min.
For the compound `Cc1cccc(Br)c1NC(=O)c1cnc(Nc2ccc(N3CCN(C)CC3)cc2)nc1NC1CCC1`, the figures for the Activity in [2] and in data set [3] were 52% and 66%, respectively. Also, the half-life in data set [1] came out at 21.5 min.
Take `CN1CCN(c2ccc(Nc3ncc(C(=O)Nc4ccccc4F)c(NC4CCC4)n3)cc2)CC1`: the figures for the Activity in [2], in data set [3] and in data set [4] were 22%, 100% and 124%, respectively. Also, the half-life in [1] was 45.6 min.
Turning to `COc1ccc(N2C(=O)N(c3c(C)cccc3Cl)Cc3cnc(Nc4ccc(C5CCN(C)CC5)cc4OC)nc32)nc1`, the half-life in data set [15] is > 120 min. The fraction unbound in data set [28] is > 0.06.
Regarding `Cc1cccc(C)c1NC(=O)c1cnc(Nc2ccc(N3CCNCC3)cc2)nc1NC1CCC1`, the half-life in [1] was 33 min.
Take `COc1cc(N2CCN(C)CC2)ccc1Nc1ncc(C(=O)Nc2c(C)cccc2C)c(NC2CCC2)n1`: the half-life in data set [1] stood at 44.1 min.
Regarding `Cc1cccc(C)c1NC(=O)c1cnc(Nc2ccc(N3CCN(C)CC3)cc2)nc1NC1CC1`, the half-life in [1] was 40.8 min.
